Values after ≈ are worked out from the molar mass of the structure shown. Active and inactive are the calls of the source. The rule behind the calls is not given here.
How the values were obtained:
[1] = Hemolytic activity in Kunming mouse erythrocytes assessed as hemolysis at 2 times of MIC measured after 1 hrs by absorbance based assay relative to control; type: toxicity, cell-based, Erythrocyte; settings: read-out: Activity
Enterococcus faecium [2] = test: Antimicrobial activity against Enterococcus faecium HFY01 assessed as inhibition of visible growth of bacteria incubated for 20 hrs by broth microdilution method; type: functional
Streptococcus pyogenes = test: Antimicrobial activity against Streptococcus pyogenes DL02 harboring erythromycin-resistance rRNA methylase B assessed as inhibition of visible growth of bacteria incubated for 20 hrs by broth microdilution method; type: functional
Staphylococcus aureus [3] = test: Antimicrobial activity against Staphylococcus aureus ATCC 29213 assessed as inhibition of visible growth of bacteria incubated for 20 hrs by broth microdilution method; type: functional
[4] = Cytotoxicity against human HEp-2 cells assessed as cell viability at 1 time of MIC incubated for 48 hrs by CCK8 assay (reference value: 100 %); type: toxicity, cell-based; settings: read-out: Activity
[5] = Hemolytic activity in Kunming mouse erythrocytes assessed as hemolysis at 8 times of MIC measured after 1 hrs by absorbance based assay relative to control; type: toxicity, cell-based, Erythrocyte; settings: read-out: Activity
Staphylococcus aureus [6] = test: Bactericidal activity against Staphylococcus aureus ATCC 29213 assessed as bacterial killing at 8 times of MIC measured within 12 hrs by time-kill kinetics assay; type: functional, organism-based
Staphylococcus aureus [7] = test: Bactericidal activity against Staphylococcus aureus ATCC 29213 assessed as log reduction in bacterial number at 4 times of MIC measured after 24 hrs by time-kill kinetics assay; type: functional
Enterococcus faecium [8] = test: Antimicrobial activity against Enterococcus faecium QF31 harboring erythromycin resistance rRNA methylase B and chloramphenicol-florfenicol resistance methylase assessed as inhibition of visible growth of bacteria incubated for 20 hrs by broth microdilution method; type: functional
Staphylococcus aureus [9] = test: Drug resistance, ratio of MIC for Staphylococcus aureus ATCC 29213 measured after 28 days to MIC for Staphylococcus aureus ATCC 29213 measured after 20 hrs; type: functional
[10] = Cytotoxicity against human Caco-2 cells assessed as cell viability at 2 times of MIC incubated for 48 hrs by CCK8 assay (reference value: 99.54 %); type: toxicity, cell-based; settings: read-out: Activity
Enterococcus faecalis [11] = test: microbe, parasite or virus in culture; type: functional; settings: SF23-1, time 20 hrs
Description: Antimicrobial activity against Enterococcus faecalis SF23-1 harboring erythromycin-resistance rRNA methylase B, tetracycline efflux protein L and chloramphenicol-florfenicol resistance methylase assessed as inhibition of visible growth of bacteria incubated for 20 hrs by broth microdilution method

[12] = Hemolytic activity in Kunming mouse erythrocytes assessed as hemolysis at 4 times of MIC measured after 1 hrs by absorbance based assay relative to control; type: toxicity, cell-based, Erythrocyte; settings: read-out: Activity
Klebsiella pneumoniae = test: Antimicrobial activity against Klebsiella pneumoniae 9-1 assessed as inhibition of visible growth of bacteria incubated for 20 hrs by broth microdilution method; type: functional
[13] = Cytotoxicity against human Caco-2 cells assessed as cell viability at 1 time of MIC incubated for 48 hrs by CCK8 assay (reference value: 99.54 %); type: toxicity, cell-based; settings: read-out: Activity
Enterococcus faecalis [14] = test: Antimicrobial activity against Enterococcus faecalis J2 harboring erythromycin-resistance rRNA methylase B and oxazolidinone phenicol transferable resistance gene assessed as inhibition of visible growth of bacteria incubated for 20 hrs by broth microdilution method; type: functional
Staphylococcus aureus [15] = test: Bactericidal activity against Staphylococcus aureus ATCC 29213 assessed as decrease in bacterial number measured within 12 hrs by time-kill kinetics assay; type: functional, organism-based
Signal peptidase I = Signal peptidase I (Escherichia coli K-12, UniProt P00803); test: Binding affinity to recombinant 6His-tagged Escherichia coli LepB (77 to 324 residues) extracted from Escherichia coli BL21 (DE3) cells assessed as dissociation constant by MST analysis
Signal peptidase I, sequence (P00803 whole entry, the tested form may be a part): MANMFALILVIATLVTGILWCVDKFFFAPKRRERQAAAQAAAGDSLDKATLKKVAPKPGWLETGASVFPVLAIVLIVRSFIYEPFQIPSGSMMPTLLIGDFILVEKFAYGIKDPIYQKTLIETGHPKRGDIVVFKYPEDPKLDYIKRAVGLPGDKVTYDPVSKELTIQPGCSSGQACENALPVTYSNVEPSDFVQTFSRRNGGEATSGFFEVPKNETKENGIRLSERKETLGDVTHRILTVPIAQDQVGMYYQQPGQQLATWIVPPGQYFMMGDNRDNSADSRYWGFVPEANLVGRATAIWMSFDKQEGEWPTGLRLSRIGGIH

Enterococcus faecalis [16] = test: Antimicrobial activity against Enterococcus faecalis ES01 harboring erythromycin-resistance rRNA methylase B and vanB-type vancomycin-resistance locus assessed as inhibition of visible growth of bacteria incubated for 20 hrs by broth microdilution method; type: functional
[17] = Hemolytic activity in Kunming mouse erythrocytes measured after 1 hrs by absorbance based assay; type: toxicity, cell-based, Erythrocyte
[18] = Cytotoxicity against human HEp-2 cells assessed as cell viability at 16 times of MIC incubated for 48 hrs by CCK8 assay (reference value: 100 %); type: toxicity, cell-based; settings: read-out: Activity
[19] = Hemolytic activity in Kunming mouse erythrocytes assessed as hemolysis at 16 times of MIC measured after 1 hrs by absorbance based assay relative to control; type: toxicity, cell-based, Erythrocyte; settings: read-out: Activity
Staphylococcus aureus [20] = test: Antimicrobial activity against Staphylococcus aureus YZSA-21 harboring erythromycin resistance rRNA methylase C assessed as inhibition of visible growth of bacteria incubated for 20 hrs by broth microdilution method; type: functional
Escherichia coli = test: Antimicrobial activity against Escherichia coli ATCC 25922 assessed as inhibition of visible growth of bacteria incubated for 20 hrs by broth microdilution method; type: functional
[21] = Cytotoxicity against human Caco-2 cells assessed as cell viability at 4 times of MIC incubated for 48 hrs by CCK8 assay (reference value: 99.54 %); type: toxicity, cell-based; settings: read-out: Activity
[22] = Cytotoxicity against human Caco-2 cells assessed as cell viability at 16 times of MIC incubated for 48 hrs by CCK8 assay (reference value: 99.54 %); type: toxicity, cell-based; settings: read-out: Activity
Pseudomonas aeruginosa [23] = test: Antimicrobial activity against Pseudomonas aeruginosa PA01 assessed as inhibition of visible growth of bacteria incubated for 20 hrs by broth microdilution method; type: functional
Streptococcus suis [24] = test: Antimicrobial activity against Streptococcus suis P1/7 assessed as inhibition of visible growth of bacteria incubated for 20 hrs by broth microdilution method; type: functional
[25] = Cytotoxicity against human HEp-2 cells assessed as cell viability at 8 times of MIC incubated for 48 hrs by CCK8 assay (reference value: 100 %); type: toxicity, cell-based; settings: read-out: Activity
Acinetobacter baumannii [26] = test: Antimicrobial activity against Acinetobacter baumannii 7979 assessed as inhibition of visible growth of bacteria incubated for 20 hrs by broth microdilution method; type: functional
Enterococcus faecium [27] = test: Antimicrobial activity against Enterococcus faecium MC38 harboring erythromycin resistance rRNA methylase B and oxazolidinone-phenicol transferable resistance gene assessed as inhibition of visible growth of bacteria incubated for 20 hrs by broth microdilution method; type: functional
Streptococcus suis [28] = test: microbe, parasite or virus in culture; type: functional; settings: SH0918, time 20 hrs
Description: Antimicrobial activity against Streptococcus suis SH0918 harboring erythromycin-resistance rRNA methylase B, tetracycline efflux protein O and oxazolidinone phenicol transferable resistance gene assessed as inhibition of visible growth of bacteria incubated for 20 hrs by broth microdilution method

Salmonella enteritidis = test: Antimicrobial activity against Salmonella enteritis S1 assessed as inhibition of visible growth of bacteria incubated for 20 hrs by broth microdilution method; type: functional, Salmonella enterica subsp. enterica serovar Enteritidis; settings: Salmonella enterica
Streptococcus agalactiae = test: Antimicrobial activity against Streptococcus agalactiae DL03 harboring erythromycin-resistance rRNA methylase B assessed as inhibition of visible growth of bacteria incubated for 20 hrs by broth microdilution method; type: functional
[29] = Cytotoxicity against human Caco-2 cells assessed as cell viability at 8 times of MIC incubated for 48 hrs by CCK8 assay (reference value: 99.54 %); type: toxicity, cell-based; settings: read-out: Activity
Staphylococcus aureus [30] = test: Antimicrobial activity against Staphylococcus aureus YZSA-24 harboring erythromycin resistance rRNA methylase C and methicillin resistance gene resistance locus assessed as inhibition of visible growth of bacteria incubated for 20 hrs by broth microdilution method; type: functional
Staphylococcus aureus [31] = test: microbe, parasite or virus in culture; type: functional; settings: M92-1, time 20 hrs
Description: Antimicrobial activity against Staphylococcus aureus M92-1 harboring erythromycin resistance rRNA methylase B, tetracycline efflux protein L and oxazolidinone-phenicol transferable resistance gene assessed as inhibition of visible growth of bacteria incubated for 20 hrs by broth microdilution method

[32] = Hemolytic activity in Kunming mouse erythrocytes assessed as hemolysis at 1 time of MIC measured after 1 hrs by absorbance based assay relative to control; type: toxicity, cell-based, Erythrocyte; settings: read-out: Activity
Staphylococcus aureus [33] = test: Antimicrobial activity against Staphylococcus aureus YZSA-15 harboring erythromycin resistance rRNA methylase C and vancomycin resistance locus assessed as inhibition of visible growth of bacteria incubated for 20 hrs by broth microdilution method; type: functional
Staphylococcus aureus [34] = test: microbe, parasite or virus in culture; type: functional; settings: M147-2, time 20 hrs
Description: Antimicrobial activity against Staphylococcus aureus M147-2 harboring erythromycin resistance rRNA methylase B, tetracycline efflux protein L and chloramphenicol-florfenicol resistance methylase assessed as inhibition of visible growth of bacteria incubated for 20 hrs by broth microdilution method

[35] = Cytotoxicity against human HEp-2 cells assessed as cell viability at 4 times of MIC incubated for 48 hrs by CCK8 assay (reference value: 100 %); type: toxicity, cell-based; settings: read-out: Activity
[36] = Cytotoxicity against human HEp-2 cells assessed as cell viability at 2 times of MIC incubated for 48 hrs by CCK8 assay (reference value: 100 %); type: toxicity, cell-based; settings: read-out: Activity
Pseudomonas aeruginosa [37] = test: Antimicrobial activity against Pseudomonas aeruginosa PA14 assessed as inhibition of visible growth of bacteria incubated for 20 hrs by broth microdilution method; type: functional
Acinetobacter baumannii [38] = test: Antimicrobial activity against Acinetobacter baumannii AB11 assessed as inhibition of visible growth of bacteria incubated for 20 hrs by broth microdilution method; type: functional
Enterococcus faecalis [39] = test: Antimicrobial activity against Enterococcus faecalis JH2-2 assessed as inhibition of visible growth of bacteria incubated for 20 hrs by broth microdilution method; type: functional
Staphylococcus aureus [40] = test: Antibacterial activity against methicillin-resistant Staphylococcus aureus YZSA-24 infected in cyclophosphamide-induced neutrophil depleted female ICR mouse model of skin infection assessed as log reduction in bacterial load at 1 %, TOP preadministered with cyclophosphamide for 5 days followed by bacterial administration and measured after 25 hrs of compound administration relative to vehicle group; type: functional

## CCCCCCc1ccc(-c2ccc(/C=C3\CC(C)Cc4c3nc3ccc(OC)cc3c4C(=O)O)cn2)cc1 (racemic)
[1]
  hemolysis at 1 h, 2 times of MIC: 0.33%
Enterococcus faecium [2]
  MIC: 4 µg/mL (≈ 7.68 µM)
Streptococcus pyogenes
  MIC: 16 µg/mL (≈ 30.7 µM)
Staphylococcus aureus [3]
  MIC: 4 µg/mL (≈ 7.68 µM)
[4]
  viability at 48 h, 1 time of MIC: 101%
[5]
  hemolysis at 1 h, 8 times of MIC: 55.8%
Staphylococcus aureus [6]
  Activity: Active
Staphylococcus aureus [7]
  Activity: 2.6 log10CFU/ml
Enterococcus faecium [8]
  MIC: 4 µg/mL (≈ 7.68 µM)
Staphylococcus aureus [9]
  Ratio: 4
[10]
  viability at 48 h, 2 times of MIC: 73.5%
Enterococcus faecalis [11]
  MIC: 8 µg/mL (≈ 15.4 µM)
[12]
  hemolysis at 1 h, 4 times of MIC: 0.98%
Klebsiella pneumoniae
  MIC: > 128 µg/mL
[13]
  viability at 48 h, 1 time of MIC: 99.7%
Enterococcus faecalis [14]
  MIC: 4 µg/mL (≈ 7.68 µM)
Staphylococcus aureus [15]
  Activity: Dose-dependent-effect
Signal peptidase I
  Kd: 20.9 µM
Enterococcus faecalis [16]
  MIC: 4 µg/mL (≈ 7.68 µM)
[17]
  HC50 at 1 h: 34.8 µg/mL
[18]
  viability at 48 h, 16 times of MIC: 1.91%
[19]
  hemolysis at 1 h, 16 times of MIC: 72.5%
Staphylococcus aureus [20]
  MIC: 4 µg/mL (≈ 7.68 µM)
Escherichia coli
  MIC: > 128 µg/mL
[21]
  viability at 48 h, 4 times of MIC: 49.7%
[22]
  viability at 48 h, 16 times of MIC: 1.44%
Pseudomonas aeruginosa [23]
  MIC: > 128 µg/mL
Streptococcus suis [24]
  MIC: 32 µg/mL (≈ 61.5 µM)
[25]
  viability at 48 h, 8 times of MIC: 39%
Acinetobacter baumannii [26]
  MIC: > 128 µg/mL
Enterococcus faecium [27]
  MIC: 4 µg/mL (≈ 7.68 µM)
Streptococcus suis [28]
  MIC: 32 µg/mL (≈ 61.5 µM)
Salmonella enteritidis
  MIC: > 128 µg/mL
Streptococcus agalactiae
  MIC: 8 µg/mL (≈ 15.4 µM)
[29]
  viability at 48 h, 8 times of MIC: 17.8%
Staphylococcus aureus [30]
  MIC: 4 µg/mL (≈ 7.68 µM)
Staphylococcus aureus [31]
  MIC: 4 µg/mL (≈ 7.68 µM)
[32]
  hemolysis at 1 h, 1 time of MIC: 0%
Staphylococcus aureus [33]
  MIC: 4 µg/mL (≈ 7.68 µM)
Staphylococcus aureus [34]
  MIC: 4 µg/mL (≈ 7.68 µM)
[35]
  viability at 48 h, 4 times of MIC: 64%
[36]
  viability at 48 h, 2 times of MIC: 94.1%
Pseudomonas aeruginosa [37]
  MIC: > 128 µg/mL
Acinetobacter baumannii [38]
  MIC: > 128 µg/mL
Enterococcus faecalis [39]
  MIC: 8 µg/mL (≈ 15.4 µM)

## CC(=O)NC[C@H]1CN(c2ccc(N3CCOCC3)c(F)c2)C(=O)O1 [LINEZOLID]
Enterococcus faecium [2]
  MIC: 2 µg/mL (≈ 5.93 µM)
Streptococcus pyogenes
  MIC: < 0.06 µg/mL
Staphylococcus aureus [3]
  MIC: 1 µg/mL (≈ 2.96 µM)
Staphylococcus aureus [40]
  Activity: 4.05 log10CFU/ml
Enterococcus faecium [8]
  MIC: 2 µg/mL (≈ 5.93 µM)
Staphylococcus aureus [20]
  MIC: 1 µg/mL (≈ 2.96 µM)
Streptococcus suis [24]
  MIC: 0.125 µg/mL (≈ 0.371 µM)
Enterococcus faecium [27]
  MIC: 2 µg/mL (≈ 5.93 µM)
Streptococcus suis [28]
  MIC: 8 µg/mL (≈ 23.7 µM)
Streptococcus agalactiae
  MIC: 1 µg/mL (≈ 2.96 µM)
Staphylococcus aureus [30]
  MIC: 0.5 µg/mL (≈ 1.48 µM)
Staphylococcus aureus [31]
  MIC: 8 µg/mL (≈ 23.7 µM)
Staphylococcus aureus [33]
  MIC: 0.5 µg/mL (≈ 1.48 µM)
Staphylococcus aureus [34]
  MIC: 8 µg/mL (≈ 23.7 µM)
Enterococcus faecalis [39]
  MIC: 0.5 µg/mL (≈ 1.48 µM)
